Laboratory results published in PMC9331314, “Synthesis and Antiviral Properties of Camphor-Derived Iminothiazolidine-4-Ones and 2,3-Dihydrothiazoles” (Molecules, 2022).
Read-outs that look alike come from different tables or passages of the source.

Legend:
[1] = tested on: Marburg pseudovirus (GP MARV)
[2] = tested on: vaccinia virus (strain Copenhagen)
in vitro [3] = conditions: African green monkey
[4] = tested on: Marburg pseudovirus (GP MARV); experiment: microbe, parasite or virus in culture; conditions: 24 h
in vitro [5] = conditions: human
[6] = tested on: vaccinia virus (strain Copenhagen); experiment: microbe, parasite or virus in culture; conditions: Orthopoxvirus vaccinia, Vero, 96 h

Compound	SI (CC50/IC50) [1]	SI (CC50/IC50) [2]	CC50 (in vitro [3]) [µM]	IC50 [4] [µM]	CC50 (in vitro [5]) [µM]	IC50 [6] [µM]	IC50 [1] [µM]
C=CCNC(=S)N/N=C1\C[C@@H]2CC[C@@]1(C)C2(C)C [2′b, (E)-N-allyl-2-((1S,4S)-1,7,7-trimethylbicyclo[2.2.1]heptan-2-ylidene)hydrazinecarbothioamide]	15	3	35 ± 4.6	3.8 ± 1.9	56.5 ± 8.2	12 ± 2.9	–
CCNC(=S)N/N=C1\C[C@@H]2CC[C@@]1(C)C2(C)C [2′c, (E)-N-ethyl-2-((1S,4S)-1,7,7-trimethylbicyclo[2.2.1]heptan-2-ylidene)hydrazinecarbothioamide]	16	3	45 ± 6.6	9.1 ± 3.9	530 ± 35.4	14 ± 2.6	–
CC1(C)[C@H]2CC[C@]1(C)/C(=N\N=C1\SCC(=O)N1c1ccccc1)C2 [3′a, (Z)-3-phenyl-2-((E)-((1S,4S)-1,7,7-trimethylbicyclo[2.2.1]heptan-2-ylidene)hydrazono)thiazolidin-4-one]	–	4	290 ± 36.9	–	–	75 ± 13.7	–
C=CCN1C(=O)CS/C1=N/N=C1/C[C@@H]2CC[C@@]1(C)C2(C)C [3′b, (Z)-3-allyl-2-((E)-((1S,4S)-1,7,7-trimethylbicyclo[2.2.1]heptan-2-ylidene)hydrazono)thiazolidin-4-one]	3	2	160 ± 20.8	45.8 ± 6.5	121 ± 6.5	66 ± 12.9	–
CCN1C(=O)CS/C1=N/N=C1/C[C@@H]2CC[C@@]1(C)C2(C)C [3′c, (Z)-3-ethyl-2-((E)-((1S,4S)-1,7,7-trimethylbicyclo[2.2.1]heptan-2-ylidene)hydrazono)thiazolidin-4-one]	3	4	220 ± 28.6	68.2 ± 20.4	170 ± 40.9	64 ± 12.3	–
CN1C(=O)CS/C1=N/N=C1/C[C@@H]2CC[C@@]1(C)C2(C)C [3′d, (Z)-3-methyl-2-((E)-((1S,4S)-1,7,7-trimethylbicyclo[2.2.1]heptan-2-ylidene)hydrazono)thiazolidin-4-one]	6	–	250 ± 31.4	28.6 ± 10.7	182 ± 14.3	–	–
Nc1ccn(C[C@@H](CO)OCP(=O)(O)O)c(=O)n1 [Cidofovir, reference compound]	–	12	475 ± 74.9	–	–	40.1 ± 2.8	–
C=CCN1C(=O)CS/C1=N/N=C1/C[C@H]2CC[C@]1(C)C2(C)C [Compound 3b, (Z)-3-allyl-2-((E)-((1R,4R)-1,7,7-trimethylbicyclo[2.2.1]heptan-2-ylidene)hydrazono)thiazolidin-4-one]	5	–	99 ± 11.8	22.9 ± 0.7	108 ± 6.5	72 ± 12.2	–
CCN1C(=O)CS/C1=N/N=C1/C[C@H]2CC[C@]1(C)C2(C)C [Compound 3c, (Z)-3-ethyl-2-((E)-((1R,4R)-1,7,7-trimethylbicyclo[2.2.1]heptan-2-ylidene)hydrazono)thiazolidin-4-one]	2	4	87 ± 10.1	30.7 ± 6.8	54.1 ± 9.2	24 ± 3.9	–
CN1C(=O)CS/C1=N/N=C1/C[C@H]2CC[C@]1(C)C2(C)C [Compound 3d, (Z)-3-methyl-2-((E)-((1R,4R)-1,7,7-trimethylbicyclo[2.2.1]heptan-2-ylidene)hydrazono)thiazolidin-4-one]	–	3	310 ± 41.3	–	–	100 ± 17.6	–
CC1(C)S/C(=N/N=C2/C[C@H]3CC[C@]2(C)C3(C)C)N(c2ccccc2)C1=O [Compound 4a, (Z)-5,5-dimethyl-3-phenyl-2-((E)-((1R,4R)-1,7,7-trimethylbicyclo[2.2.1]heptan-2-ylidene)hydrazono)thiazolidin-4-one]	3	8	270 ± 35.2	94.7 ± 8.1	325 ± 36.1	32.5 ± 2.8	–
CCN1C(=O)C(C)(C)SC1=NN=C1CC2CCC1(C)C2(C)C [Compound 4c, ((Z)-3-ethyl-5,5-dimethyl-2-((E)-((1R,4R)-1,7,7-trimethylbicyclo[2.2.1]heptan-2-ylidene)hydrazono)thiazolidin-4-one]	5	–	290 ± 34.9	171 ± 46.7	778 ± 82.8	–	–
C=CCn1c(-c2ccc(Cl)cc2)cs/c1=N/N=C1\C[C@H]2CC[C@]1(C)C2(C)C [Compound 5b, (E)-3-allyl-4-(4-chlorophenyl)-2-((E)-((1R,4R)-1,7,7-trimethylbicyclo[2.2.1]heptan-2-ylidene)hydrazono)-2,3-dihydrothiazole]	3	8	19 ± 2.8	30 ± 10	80 ± 20	2.5 ± 0.3	–
CCn1c(-c2ccc(Cl)cc2)cs/c1=N/N=C1\C[C@H]2CC[C@]1(C)C2(C)C [Compound 5c, (E)-4-(4-chlorophenyl)-3-ethyl-2-((E)-((1R,4R)-1,7,7-trimethylbicyclo[2.2.1]heptan-2-ylidene)hydrazono)-2,3-dihydrothiazole]	2	6	70 ± 8.9	25.8 ± 5.2	51.6 ± 15.5	12 ± 1.5	–
Cc1ccc(-c2cs/c(=N/N=C3\C[C@H]4CC[C@]3(C)C4(C)C)n2-c2ccccc2)cc1 [Compound 6a, (E)-3-phenyl-4-p-tolyl-2-((E)-((1R,4R)-1,7,7-trimethylbicyclo[2.2.1]heptan-2-ylidene)hydrazono)-2,3-dihydrothiazole]	2	–	98 ± 11.6	60.2 ± 14.4	135 ± 19.2	–	–
C=CCn1c(-c2ccc(C)cc2)cs/c1=N/N=C1\C[C@H]2CC[C@]1(C)C2(C)C [Compound 6b, (E)-3-allyl-4-p-tolyl-2-((E)-((1R,4R)-1,7,7-trimethylbicyclo[2.2.1]heptan-2-ylidene)hydrazono)-2,3-dihydrothiazole]	7	3	12 ± 2.1	5.3 ± 2.6	39.5 ± 4.8	4 ± 0.6	–
CCn1c(-c2ccc(C)cc2)cs/c1=N/N=C1\C[C@H]2CC[C@]1(C)C2(C)C [Compound 6c, (E)-3-ethyl-4-p-tolyl-2-((E)-((1R,4R)-1,7,7-trimethylbicyclo[2.2.1]heptan-2-ylidene)hydrazono)-2,3-dihydrothiazole]	–	–	15 ± 2.9	–	–	–	–
Cc1ccc(-c2cs/c(=N/N=C3\C[C@H]4CC[C@]3(C)C4(C)C)n2C)cc1 [Compound 6d, (E)-3-methyl-4-p-tolyl-2-((E)-((1R,4R)-1,7,7-trimethylbicyclo[2.2.1]heptan-2-ylidene)hydrazono)-2,3-dihydrothiazole]	3	3	17 ± 3.1	28.3 ± 8.5	79.2 ± 8.5	5.1 ± 0.7	–
COc1ccc(-c2cs/c(=N/N=C3\C[C@H]4CC[C@]3(C)C4(C)C)n2-c2ccccc2)cc1 [Compound 7a, (E)-4-(4-methoxyphenyl)-3-phenyl-2-((E)-((1R,4R)-1,7,7-trimethylbicyclo[2.2.1]heptan-2-ylidene)hydrazono)-2,3-dihydrothiazole]	8	–	232 ± 29.6	127 ± 23.2	973 ± 61.6	–	–
C=CCn1c(-c2ccc(OC)cc2)cs/c1=N/N=C1\C[C@H]2CC[C@]1(C)C2(C)C [Compound 7b, (E)-3-allyl-4-(4-methoxyphenyl)-2-((E)-((1R,4R)-1,7,7-trimethylbicyclo[2.2.1]heptan-2-ylidene)hydrazono)-2,3-dihydrothiazole]	3	–	200 ± 23.1	13.9 ± 2.5	37.9 ± 8.3	–	–
CCn1c(-c2ccc(OC)cc2)cs/c1=N/N=C1\C[C@H]2CC[C@]1(C)C2(C)C [Compound 7c, (E)-3-ethyl-4-(4-methoxyphenyl)-2-((E)-((1R,4R)-1,7,7-trimethylbicyclo[2.2.1]heptan-2-ylidene)hydrazono)-2,3-dihydrothiazole]	9	–	–	13 ± 5.2	117 ± 10.4	–	–
COc1ccc(-c2cs/c(=N/N=C3\C[C@H]4CC[C@]3(C)C4(C)C)n2C)cc1 [Compound 7d, (E)-4-(4-methoxyphenyl)-3-methyl-2-((E)-((1R,4R)-1,7,7-trimethylbicyclo[2.2.1]heptan-2-ylidene)hydrazono)-2,3-dihydrothiazole]	4	–	–	–	97.4 ± 21.6	–	27.1 ± 8.1
CC1(C)[C@@H]2CC[C@@]1(C)/C(=N/N=c1/scc(-c3ccccc3)n1-c1ccccc1)C2 [Compound 8a, (E)-3,4-diphenyl-2-((E)-((1R,4R)-1,7,7-trimethylbicyclo[2.2.1]heptan-2-ylidene)hydrazono)-2,3-dihydrothiazole]	3	7	122 ± 14.7	29.9 ± 5	89.6 ± 19.9	18 ± 1.9	–
C=CCn1c(-c2ccccc2)cs/c1=N/N=C1\C[C@H]2CC[C@]1(C)C2(C)C [Compound 8b, (E)-3-allyl-4-phenyl-2-((E)-((1R,4R)-1,7,7-trimethylbicyclo[2.2.1]heptan-2-ylidene)hydrazono)-2,3-dihydrothiazole]	<2	6	17 ± 2.9	19.2 ± 2.7	< 41	3 ± 0.4	–
CCn1c(-c2ccccc2)cs/c1=N/N=C1\C[C@H]2CC[C@]1(C)C2(C)C [Compound 8c, (E)-3-ethyl-4-phenyl-2-((E)-((1R,4R)-1,7,7-trimethylbicyclo[2.2.1]heptan-2-ylidene)hydrazono)-2,3-dihydrothiazole]	<2	6	17 ± 3.3	28.3 ± 2.8	< 42.4	3 ± 0.5	–
CN[C@H]1CC[C@@H](c2ccc(Cl)c(Cl)c2)c2ccccc21 [Sertraline, reference compound]	–	–	–	–	408 ± 35.9	–	–
